{"source": "paper PMC9612383", "about": "“Biological Activity of NHC-Gold-Alkynyl Complexes Derived from 3-Hydroxyflavones” (Pharmaceutics, 2022)", "key": {"Caco-2 cells": {"system": "Caco-2 cells", "assay": "Intracellular ROS levels", "type": "cell-based, Human", "conditions": "Caco-2 cells, 10, 20 and 40 μM, 1 h incubation; p > 0.05", "experimental": "Caco-2 cells were grown in 96-well plates (4000 cells/well) and incubated overnight at 5% CO2 and 37 °C. Then, cells were exposed to the required concentration of gold complex for 1 h and total intracellular ROS levels determination was performed as previously described by Sanchez-de-Diego et al.."}, "[1]": {"molecular_target": "T1, human recombinant thioredoxin reductase (Homo sapiens, UniProt Q16881)", "T1 construct": "purchased SIGMA SRP6081", "T1 sequence (Q16881 151-649 limits assumed)": "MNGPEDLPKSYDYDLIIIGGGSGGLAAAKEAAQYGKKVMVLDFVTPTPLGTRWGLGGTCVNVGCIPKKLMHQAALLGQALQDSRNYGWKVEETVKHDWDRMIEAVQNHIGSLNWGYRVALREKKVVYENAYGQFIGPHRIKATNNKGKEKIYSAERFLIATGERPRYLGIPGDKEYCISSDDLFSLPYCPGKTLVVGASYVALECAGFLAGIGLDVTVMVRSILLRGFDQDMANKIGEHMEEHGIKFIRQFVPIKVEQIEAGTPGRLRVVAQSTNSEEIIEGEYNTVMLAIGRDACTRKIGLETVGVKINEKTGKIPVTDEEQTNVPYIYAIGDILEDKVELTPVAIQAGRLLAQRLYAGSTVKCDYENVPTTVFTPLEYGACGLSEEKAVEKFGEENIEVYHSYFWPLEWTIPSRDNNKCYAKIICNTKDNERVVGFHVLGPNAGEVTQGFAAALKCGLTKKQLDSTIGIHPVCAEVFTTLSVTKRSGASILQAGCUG", "assay": "Recombinant human TrxR activity (DTNB)", "type": "biochemical", "conditions": "40 μM of complex; p > 0.05", "experimental": "A measurement of human recombinant thioredoxin reductase was performed as previously described by Quero et al.. Briefly, gold complex was dissolved in DMSO at the desired concentrations and was incubated for 45 min with recombinant human TrxR (SIGMA SRP6081) at 37 °C in a 96 well plate. 25 μL of reaction mix, composed by 500 μL PBS pH 7.4, 80 μL 100 mM EDTA pH 7.5, 20 μL 0.05% BSA, 20 mM 100 μL NADPH, and 300 μL distilled H2O, was then added to each well. 25 μL of 20 mM 5,5′-dithiobis(2-nitrobenzoic acid) (DNTB), dissolved in 100% EtOH, were added to start the reaction and changes in absorbance at 405 nm were monitored every 10 s for 6 min. For comparison purposes, the activity of recombinant TrxR in presence of DMSO was used as negative control."}, "[2]": {"molecular_target": "T2, dihydrofolate reductase (DHFR) (Escherichia coli, UniProt P0ABQ4)", "T2 construct": "to 0.01–0.03 mg of cell lysate and completed with reaction buffer; endogenous in cells; host or cells: E. coli (lysate)", "T2 sequence (P0ABQ4 whole entry)": "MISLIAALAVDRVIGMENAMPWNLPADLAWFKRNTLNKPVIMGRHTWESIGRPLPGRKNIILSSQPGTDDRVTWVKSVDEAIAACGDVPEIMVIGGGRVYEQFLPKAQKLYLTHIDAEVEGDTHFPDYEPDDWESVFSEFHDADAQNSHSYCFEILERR", "assay": "DHFR activity assay in E. coli lysates", "type": "biochemical", "conditions": "E. coli lysates incubated with complex; p < 0.05", "experimental": "For sample preparation, E. coli were lysated by sonication. After ultrasonic homogenization, the lysate was centrifuged 1 min at 13,000 rpm and the pellet was resuspended in extraction buffer. […] Both extraction and reaction buffer consisted of 10 mM Tris-HCl, 1 mM EDTA, 100 mM NaCl and protease inhibitor."}, "S. epidermidis": {"system": "S. epidermidis", "assay": "Disk diffusion test", "type": "cell-based", "conditions": "complex 5 μg, 24 h incubation; diameter including disk (6 mm)", "experimental": "(§1) To evaluate the antibacterial potential of gold derivatives, six bacterial strains were selected: E. coli, P. aeruginosa, S. enterica, E. faecalis, L. monocytogenes, S. epidermidis, S. aureus. Dis diffusion assay was performed following Clinical & Laboratory Standards Institute (CLSI) recommendations. […] Plates were and incubated for 22 h ± 2 h at 37 °C ± 1 °C and then the diameter of the inhibition zone was determined."}, "L. monocytogenes": {"system": "L. monocytogenes", "assay": "Disk diffusion test", "type": "cell-based", "conditions": "complex 5 μg, 24 h incubation; diameter including disk (6 mm)", "experimental": "as §1"}, "S. aureus 2593": {"system": "S. aureus 2593", "assay": "Disk diffusion test", "type": "cell-based", "conditions": "complex 5 μg, 24 h incubation; diameter including disk (6 mm)", "experimental": "as §1"}, "P. aeruginosa": {"system": "P. aeruginosa", "assay": "Disk diffusion test", "type": "cell-based", "conditions": "complex 5 μg, 24 h incubation; diameter including disk (6 mm)", "experimental": "as §1"}, "E. coli 25922": {"system": "E. coli 25922", "assay": "Disk diffusion test", "type": "cell-based", "conditions": "complex 5 μg, 24 h incubation; diameter including disk (6 mm)", "experimental": "as §1"}, "S. enterica 14028": {"system": "S. enterica 14028", "assay": "Disk diffusion test", "type": "cell-based", "conditions": "complex 5 μg, 24 h incubation; diameter including disk (6 mm)", "experimental": "as §1"}, "E. coli 13216": {"system": "E. coli 13216", "assay": "Disk diffusion test", "type": "cell-based", "conditions": "complex 5 μg, 24 h incubation; diameter including disk (6 mm)", "experimental": "as §1"}, "S. aureus 13565": {"system": "S. aureus 13565", "assay": "Disk diffusion test", "type": "cell-based", "conditions": "complex 5 μg, 24 h incubation; diameter including disk (6 mm)", "experimental": "as §1"}, "E. coli 8739": {"system": "E. coli 8739", "assay": "Disk diffusion test", "type": "cell-based", "conditions": "complex 5 μg, 24 h incubation; diameter including disk (6 mm)", "experimental": "as §1"}, "E. faecalis": {"system": "E. faecalis", "assay": "Disk diffusion test", "type": "cell-based", "conditions": "complex 5 μg, 24 h incubation; diameter including disk (6 mm)", "experimental": "as §1"}, "[3]": {"assay": "n-Octanol-water distribution coefficient, shake-flask", "type": "physicochemical", "conditions": "n-octanol / buffered aqueous solution pH 7.4", "experimental": "The n-octanol-water coefficients of the complexes were determined as previously reported using a shake-flask method. Buffered-saline distilled water (100 mL, phosphate buffer [PO4^3−] = 10 mM, [NaCl] = 0.15 M, pH 7.4) and n-octanol (100 mL) were shaken for 72 h to allow saturation of both phases. Approximately 1 mg of the complexes was dissolved in 5 mL of the aqueous phase and 5 mL of the organic phase were added, mixing for 10 min. The resulting emulsion was centrifuged to separate the phases. The concentration of the compounds in each phase was determined using UV absorbance spectroscopy. LogP was defined as log{[compound(organic)]/[compound(aqueous)]}."}, "E. coli": {"system": "E. coli", "assay": "Scanning electron microscopy of treated E. coli", "type": "cell-based", "conditions": "E. coli treated at 1/2× MIC and MIC, 24 h", "experimental": "500 μL of a E. coli culture (10^7 CFU mL^−^1) were added per well to a 12-well plate and were further treated with the complex 1b at its MIC and 1/2× MIC. A positive control of bacteria without any treatment and a negative control of only culture medium were included, following the same protocol as the rest of the conditions. Then, the plate was incubated at 37 °C with mild agitation for 24 h. After this time, the bacterial suspensions were transfered into 1.5 mL centrifugation tubes. Then, the bacteria were washed and fixed using glutaraldehyde 2.5% in phosphate buffer 10 mM at pH 7.2, with 2 h incubation. Then, bacteria were gradually dehydrated using EtOH solutions at different v/v% (25, 50, 75 and 100). 10 µL of the dehydrated bacteria solution was placed on a 5 × 5 mm Si waffle, left to dry and coated with a thin layer of carbon."}}, "data": [{"smiles": "Cn1cc[n+](C)[c]1[Au-][C]#CCOc1c(-c2ccc(Br)cc2)oc2ccccc2c1=O", "note": "[1b, [Au(Lb)(IMe)] (R = Br; IMe = C5H10N2)]", "values": [{"measurement": "reactive oxygen species (ROS) levels", "setting": "Caco-2 cells", "result": "no significant changes"}, {"measurement": "enzymatic activity of recombinant TrxR", "setting": "[1]", "result": "no significant changes"}, {"measurement": "DHFR activity (percentage respect to control)", "setting": "[2]", "result": "significantly decreased DHFR activity"}, {"measurement": "Inhibition Zone", "setting": "S. epidermidis", "result": "25.05 ± 1.48", "unit": "mm"}, {"measurement": "Inhibition Zone", "setting": "L. monocytogenes", "result": "18.50 ± 1.41", "unit": "mm"}, {"measurement": "Inhibition Zone", "setting": "S. aureus 2593", "result": "13.76 ± 0.54", "unit": "mm"}, {"measurement": "Inhibition Zone", "setting": "P. aeruginosa", "result": "-"}, {"measurement": "Inhibition Zone", "setting": "E. coli 25922", "result": "9.04 ± 2.17", "unit": "mm"}, {"measurement": "Inhibition Zone", "setting": "S. enterica 14028", "result": "9.39 ± 1.26", "unit": "mm"}, {"measurement": "Inhibition Zone", "setting": "E. coli 13216", "result": "10.95 ± 0.64", "unit": "mm"}, {"measurement": "Inhibition Zone", "setting": "S. aureus 13565", "result": "16.58 ± 1.63", "unit": "mm"}, {"measurement": "Inhibition Zone", "setting": "E. coli 8739", "result": "11.10 ± 0.08", "unit": "mm"}, {"measurement": "Inhibition Zone", "setting": "E. faecalis", "result": "12.50 ± 1.41", "unit": "mm"}, {"measurement": "LogP7.4 (distribution coefficient)", "setting": "[3]", "result": 1.32}, {"measurement": "cell morphology by SEM", "setting": "E. coli", "result": "rougher surface of bacteria, with the presence of wrinkles and creases"}, {"measurement": "size (length) of bacteria by SEM", "setting": "E. coli", "result": "shrinking of bacteria, which is concentration dependent"}]}]}
